Converted amounts (≈) assume the structure as drawn.
Key:
[1] = test system: choline-metabolizing gut bacteria (E. coli, P. mirabilis, C. sporogenes, A. hydrogenalis); experiment: TMA inhibition across the panel of four choline-metabolizing gut bacteria; assay type: cell-based; conditions: for EC50: read-out: EC50 values for TMA inhibition across the choline-metabolizing bacteria
Source text: We then used secondary assays to prioritize scaffolds that had broad-spectrum TMA inhibitory activity against additional choline-metabolizing gut bacteria. For this, we used Clostridium sporogenes ATCC 15579, a human gut isolate that is able to efficiently ferment choline in addition to other carbon sources, as well as Anaerococcus hydrogenalis DSM 7454 and Proteus mirabilis ATCC 29906, human gut isolates previously identified to metabolize choline in vitro ([61]). In particular, E. coli MS 200-1 and C. sporogenes ATCC 15579 have been used in gnotobiotic studies to investigate the effects of bacterial choline metabolism on the host and microbiome ([46], [61], [62]). These strains are representative of taxa frequently detected in humans ([63]) and, together with E. coli, are representative of the major phyla and genera in which TMA producers have been detected across human gut isolates ([48]). Importantly, this group of strains included both gram-positive and gram-negative bacteria. Gram-negative bacteria have an additional outer membrane layer and associated efflux pumps ([29]), which typically decreases small molecule permeability compared to gram-positive bacteria. It also included bacteria with cut gene cluster architectures that differ in the number and types of microcompartment proteins encoded and in the size of the CutC enzyme ([48]). We hypothesized that testing the inhibitors against multiple choline-utilizing gut bacteria would increase the likelihood of identifying compounds with broad-spectrum activity.
Compounds were stored as 10 mM DMSO stocks at –20°C and diluted in DMSO to prepare varying concentrations of inhibitors for testing. Bacteria were grown anaerobically overnight in media supplemented with choline as described above. Cells were pelleted and resuspended in PBS, and d9-choline chloride was added to a final concentration of 1 mM. The final OD600 of the PBS cell resuspensions is as follows: 0.4 (E. coli), 0.15–0.2 (P. mirabilis), 0.2 (C. sporogenes), and 0.4 (A. hydrogenalis). The resuspended cells were added to 96-well plates containing inhibitors (final concentration of 1% DMSO, with final inhibitor concentrations ranging between 0 and 325 µM). The plates were sealed and incubated for 75 min (or 90 min for P. mirabilis) at 37°C. Following incubation, the plates were removed from the anaerobic chamber and analyzed immediately or kept at –20°C until LC–MS/MS analysis. Each inhibitor concentration was tested in triplicate. EC50 values were calculated with GraphPad Prism by fitting the log(inhibitor) vs response—Variable slope (four-parameter) model for non-linear regression.

[2] = test system: Clostridium sporogenes ATCC 15579; experiment: MIC in MEGA medium; assay type: cell-based; conditions: Clostridium sporogenes, ATCC15579; anaerobic, 37°C, 24 h, up to 200 µM
Method: (§1) For TMA inhibition assays, E. coli and P. mirabilis were grown in NCE medium supplemented with 20 mM choline chloride, A. hydrogenalis was grown in MEGA medium supplemented with 3 mM choline chloride, and C. sporogenes was grown in BHI medium supplemented with 20 mM of choline chloride to induce expression of the cut gene cluster. For MIC assays, all bacteria strains were grown in MEGA medium.

[3] = test system: Eubacterium rectale ATCC 33656; experiment: MIC in MEGA medium; assay type: cell-based; conditions: Agathobacter rectalis, ATCC33656; anaerobic, 37°C, 24 h, up to 200 µM; read-out: MIC in MEGA medium, E. rectale
Method: as §1

[4] = test system: Anaerococcus hydrogenalis DSM 7454; experiment: MIC in MEGA medium; assay type: cell-based; conditions: Anaerococcus hydrogenalis, DSM7454; anaerobic, 37°C, 24 h, up to 200 µM
Method: as §1

[5] = test system: Bacteroides ovatus ATCC 8483; experiment: MIC in MEGA medium; assay type: cell-based; conditions: Bacteroides ovatus, ATCC8483; anaerobic, 37°C, 24 h, up to 200 µM; read-out: MIC in MEGA medium, B. ovatus
Method: as §1

[6] = test system: Bacteroides thetaiotaomicron VPI-5482; experiment: MIC in MEGA medium; assay type: cell-based; conditions: Bacteroides thetaiotaomicron, VPI5482; anaerobic, 37°C, 24 h, up to 200 µM; read-out: MIC in MEGA medium, B. thetaiotaomicron
Method: as §1

[7] = test system: Bacteroides caccae ATCC 43185; experiment: MIC in MEGA medium; assay type: cell-based; conditions: Bacteroides caccae, ATCC43185; anaerobic, 37°C, 24 h, up to 200 µM; read-out: MIC in MEGA medium, B. caccae
Method: as §1

[8] = test system: Proteus mirabilis ATCC 29906; experiment: MIC in MEGA medium; assay type: cell-based; conditions: Proteus mirabilis, ATCC29906; anaerobic, 37°C, 24 h, up to 200 µM; read-out: MIC in MEGA medium, P. mirabilis
Method: as §1

[9] = test system: Collinsella aerofaciens ATCC 25986; experiment: MIC in MEGA medium; assay type: cell-based; conditions: Collinsella aerofaciens, ATCC25986; anaerobic, 37°C, 24 h, up to 200 µM
Method: as §1

E. coli MS 200-1 [10] = experiment: MIC in MEGA medium; assay type: cell-based, Escherichia coli MS 200-1; conditions: Escherichia coli, MS2001; anaerobic, 37°C, 24 h, up to 200 µM
Method: as §1

E. coli MS 200-1 [11] = experiment: Growth inhibition of E. coli cultures in choline- and glycerol-containing minimal media; assay type: cell-based, Escherichia coli MS 200-1; conditions: for Effect on growth of E. coli MS 200-1 in glycerol medium: glycerol NCE minimal medium
Method: To validate the potential hits from the HTS, we tested the 178 compounds for inhibition of growth of E. coli MS 200-1 in glycerol minimal media at 30 µg/mL, following up with those without activity. […]. We then determined EC50 values for inhibition of TMA production from choline by bacterial cultures incubated with [trimethyl-d9]choline in phosphate-buffered saline. Of the 178 compounds tested in both growth and TMA inhibition assays, 20 inhibited TMA generation by E. coli MS 200-1 without growth-inhibitory effects in glycerol minimal medium.
NCE media was adapted based on the “no carbon E” media as previously described ([14]), and contains 29 mM potassium phosphate monobasic, 29 mM potassium phosphate dibasic, 17 mM ammonium sodium phosphate dibasic, 40 mM sodium fumarate dibasic, 0.1% (wt/vol) casamino acids, and either 20 mM choline chloride or 3 g/L glycerol. This mixture was supplemented with 1 mM magnesium sulfate, 1% ATCC vitamin supplement, and 1% ATCC trace mineral supplement.

Compound	Fold more potent than 6 across the panel of bacteria ([1]; compared with compound 6)	Reduction of conversion of choline to TMA by bacteria in vitro ([1]; in vitro) [%]	EC50 [1] [µM]	MIC [2] [µM]	MIC [3] [µM]	MIC [4] [µM]	MIC [5] [µM]	MIC [6] [µM]	MIC [7] [µM]	MIC [8] [µM]	MIC [9] [µM]	MIC (E. coli MS 200-1 [10]) [µM]	Inhibition of E. coli growth on choline (E. coli MS 200-1 [11]; choline minimal medium, 7 h, 6: 125–500 µM, 42: 30–100 µM)	Effect on growth of E. coli MS 200-1 in glycerol medium (E. coli MS 200-1 [11])
Cc1ccc(-c2cc(C(=O)NCCCCCN3CCCCCC3)c(C)[nH]2)cc1C [Compound 45]	2–10 fold	> 80	2 to 18	> 200	> 200	> 200	> 200	> 200	> 200	> 200	> 200	> 200	–	–
Cc1ccc(-c2cc(C(=O)NCCCN3CCC(C)CC3)c(C)[nH]2)cc1C [Compound 6]	–	–	–	> 200	200 (≈ 73.5 µg/mL)	200 (≈ 73.5 µg/mL)	> 200	> 200	> 200	> 200	> 200	> 200	dose-dependent	not observed in glycerol
Cc1ccc(-c2cc(C(=O)NCCCN3CCc4ccccc4C3)c(C)[nH]2)cc1C [Compound 5]	–	–	12 to 33	–	–	–	–	–	–	–	–	–	–	no impact on growth
